# In patent US4956463A, “Pyrimidone compound and pharmaceutically acceptable salts thereof” (Ikeda Mohando Company, Ltd., priority 1987, dated 1990):
# Like-named read-outs stand apart in the source and are kept apart here.
# What was measured:
# [1] = tested on: Gastric Acid Secretion Accelerated by Histamine in Pylorus-ligated Rats; assay: Inhibitory Effect on Gastric Acid Secretion by Histamine in Pylorus-ligated Rats; type: in vivo, male Wister rat; settings: dose 2 mg/kg s.c.; histamine 3 mg/kg s.c. 30 min later; average of 5 measurements; ** P < 0.01 vs control group (all values marked **)
# Method: A male Wister rat having a body weight of about 160 g and which had not fed for 24 hours was anesthetized by an intraperitonea dose of 1.2 g/kg of urethane. After ligating of pylorus and esophagus, gaster anterior was incised and fitted with a double polyethylene wall cannula. The wall of the stomach was rinsed with saline (5 ml each) at 30 minutes intervals, and the amount of gastric acid present in the rinsing solution were determined by titration technique.
# The basal amount of secreted gastric acid was initially measured three times, then 2 mg/kg of each of compounds of the invention was administered subcutaneously and 3 mg/kg of histamine was subcutaneously administered after the lapse of an additional 30 minutes.
# The quantity of gastric acid secreted after the operation was measured continuously for 3 hours. Within that measurement interval, three time points at which the increase in acid secretion reached a maximum level were selected, and the average quantity of gastric acid secreted at those time points was taken as the increase in acid secretion, which was compared with the increase in acid secretion of the control group to calculate the percent inhibition for secretion of gastric acid. [formula]
# Ethanol-Induced Ulcer = assay: Inhibitory Effect on Ethanol-Induced Ulcer; type: in vivo, male Wister rats; settings: for inhibition in vivo at 30 mg/kg: Rattus norvegicus, po, 1 h, read-out: I.R. of Ethanol-Induced Ulcer
# Method: (B) Inhibitory Effect of the Compounds of the Present Invention on Ethanol-Induced Ulcer
# This test was performed in the manner similar to the method of Robert A. (Gastroenterology, 1975, Vol. 69, pp. 1045-1047). 30 mg/kg of the compound of this invention was orally administered to male Wister rats having a body weight of about 160 g after 24 hours fasting and after additional 30 minutes, 1 ml/animal of 100% ethanol was orally administered One hour after, the stomach was dissected out and was fixed with formalin, Then, the length of the hemorrhagic ulcers generated at the front portion of the stomach was measured by means of a microscope and these were defined as the coefficient of ulcer (U.C.). [formula]
# The results obtained are listed in Table II in which the values found are expressed in the average of 5 measurements.
# [2] = 30 mg/kg p.o., 100% ethanol 1 ml/animal p.o. 30 min later, average of 5 measurements, ** P < 0.01 vs control group (Ex. 18 and Cimetidine unmarked)
structure (smiles),measurement,setting,value
"CCCCCCCCCCCCc1c(C)[nH]c(NC/C=C\COc2cccc(CN3CCCCC3)c2)nc1=O [Ex. 10, 5-Dodecyl-6-methyl-2-[4-<3-(1-piperidinomethyl)-phenoxy>-cis-2-butenylamino]-4-(1H)-pyrimidone]","Gastric Acid Secretion in Rats, Rate of inhibition",[1],36%
same,inhibition in vivo at 30 mg/kg,Ethanol-Induced Ulcer; [2],73%
"COc1ccc(Cc2c(C)[nH]c(NC/C=C\COc3cccc(CN4CCCCC4)c3)nc2=O)cc1 [Ex. 17, 5-(p-methoxybenzyl)-6-methyl-2-[4-<3-(1-piperidino-methyl)-phenoxy>-cis-2-butenylamino]-4-(1H)-pyrimidone]",inhibition in vivo at 30 mg/kg,Ethanol-Induced Ulcer; [2],78%
"Cc1[nH]c(NC/C=C\COc2cc(CN3CCCCC3)ccn2)nc(=O)c1Cc1ccc2c(c1)OCO2 [Ex. 16, 5-(3,4-methylenedioxy)-benzyl-6-methyl-2-[4-<4-(1-piperidinomethyl)-pyridyl-2-oxy>-cis-2-butenylamino]-4-(1H)-pyrimidone]",inhibition in vivo at 30 mg/kg,Ethanol-Induced Ulcer; [2],58%
Cc1[nH]c(NC/C=C\COc2cc(CN3CCCCC3)ccn2)nc(=O)c1Cc1ccccc1 [Ex. 13],inhibition in vivo at 30 mg/kg,Ethanol-Induced Ulcer; [2],56%
CCCCCCCc1c(C)[nH]c(NC/C=C\COc2cccc(CN3CCCCC3)c2)nc1=O [Ex. 7],inhibition in vivo at 30 mg/kg,Ethanol-Induced Ulcer; [2],61%
CCCc1[nH]c(NC/C=C\COc2cccc(CN3CCCCC3)c2)nc(=O)c1Cc1ccc2c(c1)OCO2 [Ex. 18],inhibition in vivo at 30 mg/kg,Ethanol-Induced Ulcer; [2],45%
"CN/C(=N/CCSCc1nc[nH]c1C)NC#N [Cimetidine, reference compound]","Gastric Acid Secretion in Rats, Rate of inhibition",[1],70%
same,inhibition in vivo at 30 mg/kg,Ethanol-Induced Ulcer,-22.4%
same,inhibitory effect for damages with ethanol,"Ethanol-Induced Ulcer; in words, as shown in Table II",not observed
"Cc1[nH]c(NC/C=C\COc2cc(CN3CCCCC3)ccn2)nc(=O)c1C [Ex. 1, 5,6-Dimethyl-2-[4-<4-(1-piperidinomethyl)-pyridyl-2-oxy>-cis-2-butenylamino]-4-(1H)-pyrimidone]","Gastric Acid Secretion in Rats, Rate of inhibition",[1],59%
same,inhibition in vivo at 30 mg/kg,Ethanol-Induced Ulcer; [2],65%
"Cc1[nH]c(NC/C=C\COc2cccc(CN3CCCCC3)c2)nc(=O)c1Cc1ccccc1 [Ex. 14, 5-Benzyl-6-methyl-2-[4-<3-(I-piperidinomethyl)-phenoxy>-cis-2-butenylamino]-4-(1H)-pyrimidone]",inhibition in vivo at 30 mg/kg,Ethanol-Induced Ulcer; [2],87%
"Cc1[nH]c(NC/C=C\COc2cccc(CN3CCCCC3)c2)nc(=O)c1C [Ex. 3, 5,6-Dimethyl-2-[4-<3-(1-piperidinomethyl)-phenoxy>-cis-2-butenylamino]-4-(1H)-pyrimidone]","Gastric Acid Secretion in Rats, Rate of inhibition",[1],70%
same,inhibition in vivo at 30 mg/kg,Ethanol-Induced Ulcer; [2],80%
"Cc1[nH]c(NC/C=C\COc2cc(CN3CCCCC3)ccn2)nc(=O)c1CCc1ccccc1 [Ex. 11, 5-Phenethyl-6-methyl-2-[4-<4-(1-piperidinomethyl)-pyridyl-2-oxy>-cis-2-butenylamino]-4-(1H)-pyrimidone]","Gastric Acid Secretion in Rats, Rate of inhibition",[1],47%
same,inhibition in vivo at 30 mg/kg,Ethanol-Induced Ulcer; [2],79%
